{
  "source": "ChEMBL document CHEMBL3872207",
  "about": "“Aromatic heterocyclic esters of podophyllotoxin exert anti-MDR activity in human leukemia K562/ADR cells via ROS/MAPK signaling pathways” (Eur J Med Chem, 2016)",
  "key": {"[1]": {"target": "T1, c-Jun N-terminal kinase, JNK (Homo sapiens) (UniProt P45983+P53779+P45984)", "experiment": "Induction of JNK phosphorylation in human K562/ADR cells assessed as ratio of phosphorylated JNK to beta-actin level at 0.1 uM pretreated with MAPK inhibitor U0126 for 1 hr followed by compound addition after 48 hrs by Western blotting method (reference value: 0.46)", "assay_type": "cell-based"}, "[2]": {"tested_on": "K562/Adr", "experiment": "Induction of apoptosis in human K562/ADR cells assessed as early apoptotic cells at 0.1 uM pretreated with MAPK inhibitor SP600125 for 1 hr followed by compound addition after 48 hrs by Annexin V-APC/7-AAD staining based flow cytometry (reference value: 2.74%)", "assay_type": "functional", "set-up": "scale not given: the % may be the effect or the level left"}, "[3]": {"target": "T2, MAP kinase p38 (Homo sapiens) (UniProt O15264+Q15759+Q16539+P53778)", "experiment": "Induction of P38 phosphorylation in human K562/ADR cells assessed as ratio of phosphorylated p38 to beta-actin level at 0.1 uM pretreated with MAPK inhibitor SB203580 for 1 hr followed by compound addition after 48 hrs by Western blotting method (reference value: 0.25)", "assay_type": "cell-based"}, "[4]": {"tested_on": "K562/Adr", "experiment": "Induction of ERK1/2 phosphorylation in human K562/ADR cells assessed as ratio of phosphorylated ERK1/2 to beta-actin level at 0.1 uM pretreated with MAPK inhibitor U0126 for 1 hr followed by compound addition after 48 hrs by Western blotting method (reference value: 0.22)", "assay_type": "cell-based"}, "[5]": {"tested_on": "K562/Adr", "experiment": "Induction of apoptosis in human K562/ADR cells assessed as necrotic cells at 0.1 uM pretreated with MAPK inhibitor SB203580 for 1 hr followed by compound addition after 48 hrs by Annexin V-APC/7-AAD staining based flow cytometry (reference value: 0.26%)", "assay_type": "functional", "set-up": "scale not given: the % may be the effect or the level left"}, "[6]": {"tested_on": "K562/Adr", "experiment": "Induction of apoptosis in human K562/ADR cells assessed as necrotic cells at 0.1 uM pretreated with MAPK inhibitor U0126 for 1 hr followed by compound addition after 48 hrs by Annexin V-APC/7-AAD staining based flow cytometry (reference value: 0.26%)", "assay_type": "functional", "set-up": "scale not given: the % may be the effect or the level left"}, "[7]": {"tested_on": "K562/Adr", "experiment": "Induction of apoptosis in human K562/ADR cells assessed as ratio of cleaved caspase-8 to beta-actin level at 0.1 uM measured after 48 hrs by Western blot analysis (reference value: 0.07)", "assay_type": "functional"}, "[8]": {"tested_on": "K562/Adr", "experiment": "Induction of apoptosis in human K562/ADR cells assessed as ratio of cleaved caspase-8 to beta-actin level at 0.1 uM pretreated with MAPK inhibitor SB203580 for 1 hr followed by compound addition measured after 48 hrs by Western blot analysis (reference value: 0.07)", "assay_type": "functional"}, "[9]": {"tested_on": "K562/Adr", "experiment": "Induction of ERK1/2 phosphorylation in human K562/ADR cells assessed as ratio of phosphorylated ERK1/2 to beta-actin level at 0.1 uM pretreated with ROS scavenger NAC for 2 hrs followed by compound addition after 48 hrs by Western blotting method (reference value: 0.22)", "assay_type": "cell-based"}, "[10]": {"tested_on": "K562/Adr", "experiment": "Induction of intracellular ROS accumulation in human K562/ADR cells assessed as fluorescence intensity at 0.1 uM measured after 24 hrs by DCFH-DA probe based flow cytometry relative to vehicle-treated control", "assay_type": "functional"}, "[11]": {"experiment": "Downregulation of P-gp expression in human K562/ADR cells assessed as ratio of P-gp to beta-actin level at 0.1 uM pretreated with MAPK inhibitor SP600125 for 1 hr followed by compound addition measured after 48 hrs by Western blot analysis (reference value: 0.63)", "assay_type": "functional, cell-based"}, "[12]": {"tested_on": "K562/Adr", "experiment": "Induction of apoptosis in human K562/ADR cells assessed as viable cells at 0.1 uM pretreated with ROS scavenger NAC for 2 hrs followed by compound addition after 48 hrs by Annexin V-APC/7-AAD staining based flow cytometry (reference value: 95.31%)", "assay_type": "functional", "details": "read-out: Activity"}, "[13]": {"tested_on": "K562/Adr", "experiment": "Induction of apoptosis in human K562/ADR cells assessed as cell shrinkage at 0.1 uM measured after 24 hrs by Hoechst33342 staining-based inverted fluorescent microscopic analysis", "assay_type": "functional"}, "[14]": {"experiment": "Downregulation of P-gp expression in human K562/ADR cells assessed as ratio of P-gp to beta-actin level at 0.1 uM pretreated with MAPK inhibitor U0126 for 1 hr followed by compound addition measured after 48 hrs by Western blot analysis (reference value: 0.63)", "assay_type": "functional, cell-based"}, "[15]": {"experiment": "Potency index, ratio of doxorubicin IC50 to compound IC50 for antiproliferative activity against human K562/ADR cells", "assay_type": "functional"}, "[16]": {"tested_on": "K562/Adr", "experiment": "Induction of apoptosis in human K562/ADR cells assessed as ratio of cleaved PARP to beta-actin level at 0.1 uM pretreated with MAPK inhibitor U0126 for 1 hr followed by compound addition measured after 48 hrs by Western blot analysis (reference value: 0.04)", "assay_type": "functional"}, "[17]": {"experiment": "Downregulation of CDK2 expression in human K562/ADR cells assessed as ratio of CDK2 to beta-actin level at 0.1 uM pretreated with MAPK inhibitor SP600125 for 1 hr followed by compound addition measured after 48 hrs by Western blot analysis (reference value: 0.65)", "assay_type": "functional, cell-based"}, "[18]": {"experiment": "Downregulation of CyclinA expression in human K562/ADR cells assessed as ratio of CyclinA to beta-actin level at 0.1 uM pretreated with MAPK inhibitor SP600125 for 1 hr followed by compound addition measured after 48 hrs by Western blot analysis (reference value: 0.64)", "assay_type": "functional, cell-based"}, "[19]": {"tested_on": "K562/Adr", "experiment": "Induction of apoptosis in human K562/ADR cells assessed as viable cells at 0.1 uM pretreated with MAPK inhibitor SB203580 for 1 hr followed by compound addition after 48 hrs by Annexin V-APC/7-AAD staining based flow cytometry (reference value: 95.31%)", "assay_type": "functional", "details": "read-out: Activity"}, "[20]": {"target": "T1, c-Jun N-terminal kinase, JNK (Homo sapiens)", "experiment": "Induction of JNK phosphorylation in human K562/ADR cells assessed as ratio of phosphorylated JNK to beta-actin level at 0.1 uM pretreated with MAPK inhibitor SB203580 for 1 hr followed by compound addition after 48 hrs by Western blotting method (reference value: 0.46)", "assay_type": "cell-based"}, "[21]": {"tested_on": "K562/Adr", "experiment": "Induction of apoptosis in human K562/ADR cells assessed as ratio of cleaved PARP to beta-actin level at 0.1 uM pretreated with MAPK inhibitor SB203580 for 1 hr followed by compound addition measured after 48 hrs by Western blot analysis (reference value: 0.04)", "assay_type": "functional"}, "[22]": {"tested_on": "K562/Adr", "experiment": "Induction of ERK1/2 phosphorylation in human K562/ADR cells assessed as ratio of phosphorylated ERK1/2 to beta-actin level at 0.1 uM pretreated with MAPK inhibitor SP600125 for 1 hr followed by compound addition after 48 hrs by Western blotting method (reference value: 0.22)", "assay_type": "cell-based"}, "[23]": {"experiment": "Downregulation of CyclinA expression in human K562/ADR cells assessed as ratio of CyclinA to beta-actin level at 0.1 uM pretreated with MAPK inhibitor U0126 for 1 hr followed by compound addition measured after 48 hrs by Western blot analysis (reference value: 0.64)", "assay_type": "functional, cell-based"}, "[24]": {"tested_on": "K562/Adr", "experiment": "Induction of ROS generation in human K562/ADR cells at 0.1 uM measured after 24 hrs by DCFH-DA probe based inverted fluorescence microscopy", "assay_type": "functional, cell-based"}, "[25]": {"target": "T2, MAP kinase p38 (Homo sapiens)", "experiment": "Induction of P38 phosphorylation in human K562/ADR cells assessed as ratio of phosphorylated p38 to beta-actin level at 0.1 uM pretreated with MAPK inhibitor SP600125 for 1 hr followed by compound addition after 48 hrs by Western blotting method (reference value: 0.25)", "assay_type": "cell-based"}},
  "note": "The source made the active and inactive calls. The calls are words filed in the database; no cut-off is given here.",
  "data": [
    {"smiles": "COc1cc([C@@H]2c3cc4c(cc3[C@H](OC(=O)c3ccco3)[C@H]3COC(=O)[C@H]23)OCO4)cc(OC)c1OC", "values": [
      {"measurement": "Ratio", "setting": "[1]", "result": 0.35},
      {"measurement": "Activity", "setting": "[2]", "result": 7.8, "unit": "%"},
      {"measurement": "Ratio", "setting": "[3]", "result": 0.02},
      {"measurement": "Ratio", "setting": "[4]", "result": 0.01},
      {"measurement": "Activity", "setting": "[5]", "result": 2.86, "unit": "%"},
      {"measurement": "Activity", "setting": "[6]", "result": 3.32, "unit": "%"},
      {"measurement": "Ratio", "setting": "[7]", "result": 0.77},
      {"measurement": "Ratio", "setting": "[8]", "result": 0.51},
      {"measurement": "Ratio", "setting": "[9]", "result": 0.22},
      {"measurement": "fold change (FC)", "setting": "[10]", "result": 2.396},
      {"measurement": "Ratio", "setting": "[11]", "result": 0.34},
      {"measurement": "viability at 0.1 µM", "setting": "[12]", "result": 65.5, "unit": "%"},
      {"measurement": "Activity", "setting": "[13]", "result": "Active"},
      {"measurement": "Ratio", "setting": "[14]", "result": 0.35},
      {"measurement": "Ratio IC50", "setting": "[15]", "result": 586.843},
      {"measurement": "Ratio", "setting": "[16]", "result": 0.43},
      {"measurement": "Ratio", "setting": "[17]", "result": 0.22},
      {"measurement": "Ratio", "setting": "[18]", "result": 0.31},
      {"measurement": "viability at 0.1 µM", "setting": "[19]", "result": 59.4, "unit": "%"},
      {"measurement": "Ratio", "setting": "[20]", "result": 0.3},
      {"measurement": "Ratio", "setting": "[21]", "result": 0.48},
      {"measurement": "Ratio", "setting": "[22]", "result": 0.06},
      {"measurement": "Ratio", "setting": "[23]", "result": 0.41},
      {"measurement": "Activity", "setting": "[24]", "result": "Active"},
      {"measurement": "Ratio", "setting": "[25]", "result": 0.19}
    ]}
  ]
}
